Laboratory results reported in paper PMC11659602, “Discovering covalent cyclic peptide inhibitors of peptidyl arginine deiminase 4 (PADI4) using mRNA-display with a genetically encoded electrophilic warhead” (Communications Chemistry, 2024).
Values joined by “and” are separate entries in the source; they are usually repeats but may differ in a detail not shown here. Identical values can stand only once. Like-named read-outs stand apart in the source and are kept apart here. *1 amine or outer side, *2 acyl side, *3 side chain or, on linkers, in order; H or OH if unused. Where a SMILES comes first, the peptide text is derived from it. Bridges are numbered along the chain shown (N, C = ends). [ ]: non-standard residue; d: D form. Orn(fluoroacetimidoyl) = N=C(CF)NCCC[C@H](N)C(=O)O; X1 = N=C(CCl)NCCC[C@H](N[*:1])C(=O)[*:2]; Cit = NC(=O)NCCC[C@H](N)C(=O)O

What was measured:
PADI4 [1] = target: T1, PADI4 (Homo sapiens, UniProt Q9UM07); experiment: COLDER inhibition assay, BAEE substrate, with or without 1 h preincubation; type: biochemical; settings: for IC50: COLDER; for remaining activity at 0.3 µM: peptide 0.3 µM; for remaining activity at 0.003 µM: peptide 0.003 µM; for remaining activity at 0.01 µM: peptide 0.01 µM; for remaining activity at 0.03 µM: peptide 0.03 µM; for remaining activity at 0.1 µM: peptide 0.1 µM; for remaining activity at 1 µM: peptide 1 µM; for remaining activity at 3 µM: peptide 3 µM; for remaining activity at 10 µM: peptide 10 µM; for remaining activity at 30 µM: peptide 30 µM; for remaining activity at 50 µM: peptide 50 µM
T1 construct: His6; made in house
Procedure: PADI4 citrullination activity was analysed using the COLDER assay in 96-well plates. Peptide dilutions were prepared from a 500 µM stock, to give a 10 times concentrated dilution series (500 µM, 300 µM, 100 µM, 30 µM, 10 µM, 3 µM, 1 µM, 0.3 µM, 0.1 µM and 0.03 µM) in COLDER buffer (50 mM HEPES, 150 mM NaCl and 2 mM DTT, pH 7.5) containing 1% DMSO. In triplicate, each was diluted 10-fold further when mixed with 50 nM His-PADI4, 0.6 mg/mL BSA and 10 mM CaCl2, in COLDER buffer. With or without one hour of incubation, 10 mM N^α-Benzoyl-L-arginine ethyl ester hydrochloride (BAEE, Merck) was added to initiate the reaction (50 µL final volume). After 30 min at rt, EDTA (50 mM final concentration) was used to quench the reaction and 200 µL of COLDER solution containing 20 mM Diacetyl monoxime/2,3-butanedione monoxime (Merck), 0.5 mM Thiosemicarbazide (Acros Organics), 2.25 M H3PO4, 4.5 M H2SO4 and 1.5 mM NH4Fe(SO4)2.12H2O was added to each well. Samples were incubated for 20 min at 95 °C before measuring absorbance at 540 nm on a CLARIOstar Plus (BMG LABTECH). Data analysis was performed with GraphPad Prism. Data are presented as the average ± standard error of the mean from at least two independent replicates.

PADI4 [2] = target: T1, PADI4; experiment: Surface plasmon resonance (SPR), single cycle kinetics; type: binding; settings: for Kd: reversible binding, 1:1 binding model; for Ki: k-1/k+1
Procedure: S8. Surface plasmon resonance (SPR)
Using a Biacore S200 (GE Healthcare), biotinylated His-PADI4 (80 nM) was immobilised on a CAP chip (GE Healthcare) to a response unit of approx. 3000. At 25 °C, single cycle kinetics mode was used with 5 samples of a 3-fold dilution series of peptides PADI4_3_H4(2), cP4_2, […]
mM HEPES, 150 mM NaCl, 10 mM CaCl2, 0.05% Tween-20, 0.1% DMSO (pH 7.5). After each cycle, regeneration of the chip was carried out as per the manufacturer’s protocol. Data were analysed with the Biacore S200 Evaluation Software, each in triplicate. Warhead-containing peptides were analysed using the two-state reaction model, with the rate constant for the reverse second step (k-2) set to zero. The equilibrium constant of the reversible binding step, Ki, was calculated as the ratio of k-1/k+1 and the rate constant of the irreversible chemical step, kinact, as k+2. The Arg4, Cit4 and Me4 peptides were fitted using a 1:1 binding model. […]

[3] = no preincubation of peptide and PADI4, 10 mM CaCl2, read-out: IC50 Values 0 h preincubation
[4] = no preincubation, read-out: PADI4 activity, normalised (Figure 4b dose-response)
[5] = 1 h preincubation of peptide and PADI4, 10 mM CaCl2, read-out: IC50 Values 1 h preincubation
[6] = T=0, values starred, read-out: PADI4 activity normalised to 0.1% DMSO
[7] = T=0, read-out: PADI4 activity normalised to 0.1% DMSO
[8] = T=1, read-out: PADI4 activity normalised to 0.1% DMSO
[9] = each replicate, read-out: k2 / kinact
[10] = two-state reaction model, k+2, read-out: SPR kinact (converted)
[11] = 1 h, T=1 (1 h preincubation), read-out: PADI4 activity, dose-response data of Figure S15 (individual replicates)
[12] = T=0 (no preincubation), read-out: PADI4 activity, dose-response data of Figure S15 (individual replicates)

T1 sequence (Q9UM07 whole entry): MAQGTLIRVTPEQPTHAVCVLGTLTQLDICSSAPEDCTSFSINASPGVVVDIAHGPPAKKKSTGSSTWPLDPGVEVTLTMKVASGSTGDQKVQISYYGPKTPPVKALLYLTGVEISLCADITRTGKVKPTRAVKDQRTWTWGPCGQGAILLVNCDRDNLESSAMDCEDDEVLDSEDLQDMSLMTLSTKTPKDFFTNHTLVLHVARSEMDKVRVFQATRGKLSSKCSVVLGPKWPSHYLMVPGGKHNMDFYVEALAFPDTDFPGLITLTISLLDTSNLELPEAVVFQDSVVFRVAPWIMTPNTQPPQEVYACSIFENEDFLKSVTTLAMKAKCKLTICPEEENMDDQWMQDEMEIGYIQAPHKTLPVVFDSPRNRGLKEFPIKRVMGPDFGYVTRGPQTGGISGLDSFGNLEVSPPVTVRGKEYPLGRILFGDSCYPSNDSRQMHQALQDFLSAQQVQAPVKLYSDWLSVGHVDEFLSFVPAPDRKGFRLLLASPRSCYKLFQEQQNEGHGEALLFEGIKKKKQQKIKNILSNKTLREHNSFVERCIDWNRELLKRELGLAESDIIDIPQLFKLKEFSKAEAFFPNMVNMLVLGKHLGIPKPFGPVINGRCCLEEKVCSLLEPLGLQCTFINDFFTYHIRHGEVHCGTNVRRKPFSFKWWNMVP

SMILES: N=C(N)NCCC[C@@H]1NC(=O)[C@H](CC(=O)O)NC(=O)[C@H](Cc2ccc(O)cc2)NC(=O)[C@H](CCCCN)NC(=O)[C@H](CO)NC(=O)[C@@H](Cc2ccc(O)cc2)NC(=O)CSC[C@@H](C(=O)NCC(N)=O)NC(=O)[C@H](CC(=O)O)NC(=O)[C@H](CCCNC(=N)N)NC(=O)[C@@H]2CCCN2C(=O)[C@H](CO)NC(=O)[C@H](CCCNC(=N)N)NC1=O [Arg4] ({CH2CO}-[dY]SKYDRRSPRDCG-NH2; thioether N-12)
- IC50 (PADI4 [1]; [3]): > 100000 nM
- remaining activity at 0.3 µM (PADI4 [1]; [4]): 101%
- Kd (PADI4 [2]): 2000 ± 200 nM

SMILES: CC[C@H](C)[C@@H]1NC(=O)[C@@H](Cc2ccc(O)cc2)NC(=O)CSC[C@@H](C(=O)NCC(N)=O)NC(=O)[C@H](CO)NC(=O)[C@H](CCCNC(=N)CF)NC(=O)[C@H](CC(=O)O)NC(=O)[C@H](CCCNC(=N)CF)NC(=O)[C@H](CC(C)C)NC(=O)CNC(=O)[C@H](Cc2c[nH]c3ccccc23)NC1=O [cP4_2, yIWGL(2)D(2)SCG] ({CH2CO}-[dY]IWGL[Orn(fluoroacetimidoyl)]D[Orn(fluoroacetimidoyl)]SCG-NH2; thioether N-10)
- IC50 (PADI4 [1]; [5]): 870 ± 60 nM
- IC50 (PADI4 [1]; [3]): > 50000 nM
- remaining activity at 0.003 µM (PADI4 [1]; [6]): 107%
- remaining activity at 0.01 µM (PADI4 [1]; [6]): 107%
- remaining activity at 0.03 µM (PADI4 [1]; [7]): 107%
- remaining activity at 0.1 µM (PADI4 [1]; [7]): 108%
- remaining activity at 0.1 µM (PADI4 [1]; [8]): 93.3%
- remaining activity at 0.3 µM (PADI4 [1]; [7]): 106%
- remaining activity at 0.3 µM (PADI4 [1]; [8]): 74.9%
- remaining activity at 1 µM (PADI4 [1]; [7]): 107%
- remaining activity at 1 µM (PADI4 [1]; [8]): 42.9%
- remaining activity at 3 µM (PADI4 [1]; [7]): 105%
- remaining activity at 3 µM (PADI4 [1]; [8]): 7.63%
- remaining activity at 10 µM (PADI4 [1]; [7]): 101%
- remaining activity at 10 µM (PADI4 [1]; [8]): 3.92%
- remaining activity at 30 µM (PADI4 [1]; [7]): 80.9%
- remaining activity at 50 µM (PADI4 [1]; T=0 (no preincubation), read-out: PADI4 activity normalised to 0.1% DMSO): 64.4%
- kinact/KI (PADI4 [2]): 1530 M⁻¹ s⁻¹
- k2 / kinact (PADI4 [2]; each replicate): 0.0026 s⁻¹ and 0.0019 s⁻¹
- kinact (PADI4 [2]; [9]): 0.0014 s⁻¹
- kinact (PADI4 [2]; [10]): 0.002 s⁻¹
- Ki (PADI4 [2]; two-state reaction model): 1300 ± 500 nM

SMILES: N=C(N)NCCC[C@@H]1NC(=O)[C@H](CCCNC(N)=O)NC(=O)[C@H](CC(=O)O)NC(=O)[C@H](Cc2ccc(O)cc2)NC(=O)[C@H](CCCCN)NC(=O)[C@H](CO)NC(=O)[C@@H](Cc2ccc(O)cc2)NC(=O)CSC[C@@H](C(=O)NCC(N)=O)NC(=O)[C@H](CC(=O)O)NC(=O)[C@H](CCCNC(=N)N)NC(=O)[C@@H]2CCCN2C(=O)[C@H](CO)NC1=O [Cit4] ({CH2CO}-[dY]SKYD[Cit]RSPRDCG-NH2; thioether N-12)
- IC50 (PADI4 [1]; [3]): > 100000 nM
- remaining activity at 0.003 µM (PADI4 [1]; [4]): 96.7%
- remaining activity at 0.03 µM (PADI4 [1]; [4]): 95.6%
- remaining activity at 0.1 µM (PADI4 [1]; [4]): 99.7%
- remaining activity at 0.3 µM (PADI4 [1]; [4]): 103%
- remaining activity at 3 µM (PADI4 [1]; [4]): 101%
- remaining activity at 10 µM (PADI4 [1]; [4]): 108%
- remaining activity at 30 µM (PADI4 [1]; [4]): 103%
- remaining activity at 50 µM (PADI4 [1]; [4]): 107%
- Kd (PADI4 [2]): > 10000 nM

SMILES: N=C(N)NCCC[C@@H]1NC(=O)[C@H](CCCNC(=N)CCl)NC(=O)[C@H](CC(=O)O)NC(=O)[C@H](Cc2ccc(O)cc2)NC(=O)[C@H](CCCCN)NC(=O)[C@H](CO)NC(=O)[C@@H](Cc2ccc(O)cc2)NC(=O)CSC[C@@H](C(=O)NCC(N)=O)NC(=O)[C@H](CC(=O)O)NC(=O)[C@H](CCCNC(=N)N)NC(=O)[C@@H]2CCCN2C(=O)[C@H](CO)NC1=O [Cl4] ({CH2CO}-[dY]SKYD[X1]RSPRDCG-NH2; thioether N-12)
- remaining activity at 0.1 µM (PADI4 [1]; 1 h, T = 1 h preincubation, read-out: PADI4 activity, normalised (Figure 4b dose-response)): 27.3%
- IC50 (PADI4 [1]; [5]): 66 ± 9 nM
- IC50 (PADI4 [1]; [3]): 8200 ± 800 nM
- remaining activity at 0.01 µM (PADI4 [1]; [4]): 85.9%
- remaining activity at 0.03 µM (PADI4 [1]; [4]): 90.5%
- remaining activity at 0.1 µM (PADI4 [1]; [4]): 86.7%
- remaining activity at 0.3 µM (PADI4 [1]; [4]): 86.6%
- remaining activity at 1 µM (PADI4 [1]; [4]): 82.4%
- remaining activity at 10 µM (PADI4 [1]; [4]): 34.1%
- remaining activity at 30 µM (PADI4 [1]; [4]): 12.5%
- remaining activity at 50 µM (PADI4 [1]; [4]): 6.56%
- kinact/KI (PADI4 [2]): 1170 M⁻¹ s⁻¹
- kinact (PADI4 [2]; [10]): 0.00467 s⁻¹
- Ki (PADI4 [2]; two-state reaction model): 4000 ± 200 nM

SMILES: CC[C@H](C)[C@@H]1NC(=O)[C@H](CCCNC(=N)N)NC(=O)[C@H](Cc2ccc(O)cc2)NC(=O)[C@H](CCCNC(=N)N)NC(=O)[C@H](CCC(=O)O)NC(=O)[C@H](CCCNC(=N)CF)NC(=O)[C@H](CC(N)=O)NC(=O)[C@H](CC(C)C)NC(=O)[C@@H](Cc2ccc(O)cc2)NC(=O)CSC[C@@H](C(=O)NCC(N)=O)NC(=O)[C@H](CO)NC1=O [cP4_18] ({CH2CO}-[dY]LN[Orn(fluoroacetimidoyl)]ERYRISCG-NH2; thioether N-11)
- remaining activity at 0.003 µM (PADI4 [1]; [11]): 101%
- remaining activity at 0.01 µM (PADI4 [1]; [11]): 99.7%
- remaining activity at 0.03 µM (PADI4 [1]; [11]): 95.4%
- remaining activity at 0.1 µM (PADI4 [1]; [11]): 77.6%
- remaining activity at 0.3 µM (PADI4 [1]; [11]): 35.4%
- remaining activity at 1 µM (PADI4 [1]; [11]): 10%
- IC50 (PADI4 [1]; [5]): 180 nM
- remaining activity at 0.003 µM (PADI4 [1]; [12]): 106%
- remaining activity at 0.01 µM (PADI4 [1]; [12]): 108%
- remaining activity at 0.03 µM (PADI4 [1]; [12]): 107%
- remaining activity at 0.1 µM (PADI4 [1]; [12]): 110%
- remaining activity at 0.3 µM (PADI4 [1]; [12]): 107%
- remaining activity at 1 µM (PADI4 [1]; [12]): 102%
- remaining activity at 3 µM (PADI4 [1]; [12]): 94.6%
- remaining activity at 10 µM (PADI4 [1]; [12]): 64.3%
- remaining activity at 30 µM (PADI4 [1]; [12]): 31.1%
- remaining activity at 50 µM (PADI4 [1]; [12]): 21.4%
- k2 / kinact (PADI4 [2]; each replicate): 0.0019 s⁻¹
- kinact (PADI4 [2]; [9]): 0.0027 s⁻¹
- kinact (PADI4 [2]; [10]): 0.00317 s⁻¹
- Ki (PADI4 [2]; two-state reaction model): 810 ± 80 nM
